What is called pIC50 is the IC50 on a negative log10 scale, so that one unit is a factor of ten. Low values mean a high IC50, high ones a low IC50.

From patent US20240246967A1, “AXL COMPOUNDS” (ARCUS BIOSCIENCES, INC., priority 2021, published 2024) come the findings set out here.

The structures appear in SMILES notation. pIC50: −log10 of the molar value.

The target in one test is T1, human MER (Homo sapiens, UniProt Q12866).
T1 construct: purchased Invitrogen
T1 sequence (Q12866 21-999): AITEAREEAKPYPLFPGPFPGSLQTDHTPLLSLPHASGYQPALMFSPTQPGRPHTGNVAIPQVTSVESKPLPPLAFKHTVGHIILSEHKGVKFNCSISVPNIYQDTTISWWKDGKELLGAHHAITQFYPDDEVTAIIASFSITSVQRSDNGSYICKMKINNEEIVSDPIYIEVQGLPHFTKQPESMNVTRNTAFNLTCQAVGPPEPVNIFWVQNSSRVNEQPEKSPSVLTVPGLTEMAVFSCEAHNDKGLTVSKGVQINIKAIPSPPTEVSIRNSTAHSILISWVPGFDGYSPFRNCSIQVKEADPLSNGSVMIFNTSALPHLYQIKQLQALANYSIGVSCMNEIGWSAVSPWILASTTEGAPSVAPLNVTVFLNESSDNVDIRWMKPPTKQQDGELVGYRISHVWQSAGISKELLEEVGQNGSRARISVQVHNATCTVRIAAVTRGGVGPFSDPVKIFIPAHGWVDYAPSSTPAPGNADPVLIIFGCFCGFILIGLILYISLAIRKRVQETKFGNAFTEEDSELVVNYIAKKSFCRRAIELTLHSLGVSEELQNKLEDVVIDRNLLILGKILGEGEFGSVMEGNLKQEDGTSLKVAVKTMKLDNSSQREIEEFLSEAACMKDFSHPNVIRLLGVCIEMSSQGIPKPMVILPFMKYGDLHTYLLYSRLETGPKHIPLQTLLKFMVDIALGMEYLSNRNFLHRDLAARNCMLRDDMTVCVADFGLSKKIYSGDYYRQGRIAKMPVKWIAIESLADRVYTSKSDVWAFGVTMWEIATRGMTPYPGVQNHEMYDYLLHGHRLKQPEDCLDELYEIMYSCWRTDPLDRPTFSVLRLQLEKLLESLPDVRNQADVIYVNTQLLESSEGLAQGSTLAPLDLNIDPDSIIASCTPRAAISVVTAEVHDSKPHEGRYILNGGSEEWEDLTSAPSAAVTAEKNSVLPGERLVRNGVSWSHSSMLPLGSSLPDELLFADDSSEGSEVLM
In words: HTRF KinEASE-TK biochemical potency assay, MER. The conditions noted are these: 1 nM MER, 700 μM ATP, 800 nM TK Substrate-biotin. The protocol:
(§1) Purified recombinant human AXL, TYRO3 and MER proteins were purchased from Invitrogen™. 10 nM AXL, 2 nM TYRO3 or MER were incubated with varying concentrations of compounds in 50 mM HEPES, pH 7.4, 10 mM MgCl2, 0.01% BSA, 1 mM DTT and 2% DMSO in a total volume of 20 μl in a 384-well microplate (Corning™ #3640) at RT for 1 h. The AXL, TYRO3 and MER enzymatic reaction was initiated by transferring 10 μl of enzyme and compound mixture into 10 μl of 1.6 μM TK Substrate-biotin (HTRF® KinEASE-TK kit, Cisbio) and 1400 μM ATP pre-incubated in 50 mM HEPES, pH 7.4, 10 mM MgCl2, 0.01% BSA, 1 mM DTT in a 384-well microplate (Corning™ #3640) at RT, giving the final reaction conditions: 5 nM AXL, 1 nM TYRO3 or MER, 800 nM TK Substrate-biotin and 700 μM ATP in 50 mM HEPES, pH 7.4, 10 mM MgCl2, 0.01% BSA, 1 mM DTT and 1% DMSO with varying concentrations of compounds. Following 2 h incubation at RT, the AXL, TYRO3 and MER enzymatic reaction was stopped by transfer of 10 μl of reaction into 10 μl of detection mix (400 nM Streptavidin-XL665, 200-fold dilution TK Antibody-Cryptate and detection buffer, HTRF® KinEASE-TK kit, Cisbio) in a white 384-well microplate (Perkin Elmer, OptiPlate 384). After 1 h incubation at RT, the plate was put into a plate reader (Evision) to read at 665/620 nm (acceptor/donor) for HTRF. The value of the DMSO blank (MIN inhibition=100% activity) was used as a negative control. The positive control was established by adding 5 μl of enzyme and DMSO mixture into 10 μl of detection mix followed by addition of 5 μl of TK Substrate-biotin and ATP mixture (MAX inhibition=0% activity). To calculate the percent activity, Equation 1 was used. Ratio 665/620 is the value at a given compound concentration: […]
In general terms: Time-resolved FRET reads energy transfer from a long-lived donor to a nearby acceptor.

Another test has as its target T2, human TYRO3 (Homo sapiens, UniProt Q06418).
T2 construct: purchased Invitrogen
T2 sequence (Q06418 41-890): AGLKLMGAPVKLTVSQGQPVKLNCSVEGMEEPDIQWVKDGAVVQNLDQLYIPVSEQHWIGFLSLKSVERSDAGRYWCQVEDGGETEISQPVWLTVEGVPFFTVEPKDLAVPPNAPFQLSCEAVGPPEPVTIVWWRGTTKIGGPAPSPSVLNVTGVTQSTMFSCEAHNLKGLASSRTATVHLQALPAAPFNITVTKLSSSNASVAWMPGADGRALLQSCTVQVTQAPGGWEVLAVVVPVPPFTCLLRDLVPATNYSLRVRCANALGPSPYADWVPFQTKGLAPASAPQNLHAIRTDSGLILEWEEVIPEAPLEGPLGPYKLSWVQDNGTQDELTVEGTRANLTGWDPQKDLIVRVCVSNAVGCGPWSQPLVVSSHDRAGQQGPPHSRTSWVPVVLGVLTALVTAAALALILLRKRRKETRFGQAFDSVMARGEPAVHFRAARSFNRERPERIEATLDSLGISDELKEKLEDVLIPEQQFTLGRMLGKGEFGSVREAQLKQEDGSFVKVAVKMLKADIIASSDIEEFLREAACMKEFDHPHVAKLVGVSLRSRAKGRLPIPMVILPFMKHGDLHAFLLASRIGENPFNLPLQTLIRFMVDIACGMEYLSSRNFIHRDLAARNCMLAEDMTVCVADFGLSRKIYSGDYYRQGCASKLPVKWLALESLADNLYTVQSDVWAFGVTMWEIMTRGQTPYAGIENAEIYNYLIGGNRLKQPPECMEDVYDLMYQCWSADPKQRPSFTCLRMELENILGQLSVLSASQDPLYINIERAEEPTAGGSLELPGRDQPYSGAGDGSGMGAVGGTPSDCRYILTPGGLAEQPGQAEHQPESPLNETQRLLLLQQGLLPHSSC
In words: HTRF KinEASE-TK biochemical potency assay, TYRO3. To be noted: 1 nM TYRO3, 700 μM ATP, 800 nM TK Substrate-biotin. The protocol: as §1

On to `CC1(N2CCC[C@H]2CO)CCc2ccc(-c3cnc4[nH]nc(-c5ccc(S(=O)(=O)C6CC6)cc5)c4c3)cc2CC1` (stereo partly drawn) [Example 4, [(2S)-1-(2-{3-[4-(Cyclopropanesulfonyl)phenyl]-1H-pyrazolo[3,4-b]pyridin-5-yl}-7-methyl-6,7,8,9-tetrahydro-5H-benzo[7]annulen-7-yl)pyrrolidin-2-yl]methanol], for which the negative-log IC50 (pIC50) at human MER and against human TYRO3 was 6.00 to 7.00 throughout.

With `C[C@H]1CCCN1C1(C)CCc2ccc(-c3cnc4[nH]nc(-c5ccc(S(=O)(=O)C6CC6)cc5)c4c3)cc2CC1` (stereo partly drawn) [Example 5, (2S)-1-(2-{3-[4-(Cyclopropanesulfonyl)phenyl]-1H-pyrazolo[3,4-b]pyridin-5-yl}-7-methyl-6,7,8,9-tetrahydro-5H-benzo[7]annulen-7-yl)-2-methylpyrrolidine], the negative logarithm of the IC50 (pIC50) against human MER was 6.00 to 7.00; against human TYRO3, above 7.00.

Regarding `CCC1(N2CCC[C@H]2C)CCc2ccc(-c3cnc4[nH]nc(-c5ccc(S(=O)(=O)C6CC6)cc5)c4c3)cc2CC1` (stereo partly drawn) [Example 6, (2R)-1-(2-{3-[4-(Cyclopropanesulfonyl)phenyl]-1H-pyrazolo[3,4-b]pyridin-5-yl}-7-ethyl-6,7,8,9-tetrahydro-5H-benzo[7]annulen-7-yl)-2-methylpyrrolidine], the pIC50 against human MER is below 6.00; against human TYRO3 it was 6.00 to 7.00.

In the case of `CC1(N2CCC2)CCc2ccc(-c3cnc4[nH]nc(-c5ccc(S(=O)(=O)C6CC6)cc5)c4c3)cc2CC1` (stereo not shown) [Example 7, 1-(2-{3-[4-(Cyclopropanesulfonyl)phenyl]-1H-pyrazolo[3,4-b]pyridin-5-yl}-7-methyl-6,7,8,9-tetrahydro-5H-benzo[7]annulen-7-yl)azetidine], the pIC50 on human MER and against human TYRO3 was 6.00 to 7.00 each time.

With `C[C@@H]1CCCN1C1(C)CCc2ccc(-c3cnc4[nH]nc(-c5ccc(S(=O)(=O)C(F)(F)F)cc5)c4c3)cc2CC1` (stereo partly drawn) [Example 8, (2R)-2-Methyl-1-{7-methyl-2-[3-(4-trifluoromethanesulfonylphenyl)-1H-pyrazolo[3,4-b]pyridin-5-yl]-6,7,8,9-tetrahydro-5H-benzo[7]annulen-7-yl}pyrrolidine], the pIC50 against human MER and on human TYRO3 was below 6.00 each time.

With `CC(C)(O)c1ccc(-c2n[nH]c3ncc(-c4ccc5c(c4)CCC(N4CCCC4)CC5)cc23)cn1` (stereo not shown) [Example 9, 2-(5-{5-[7-(Pyrrolidin-1-yl)-6,7,8,9-tetrahydro-5H-benzo[7]annulen-2-yl]-1H-pyrazolo[3,4-b]pyridin-3-yl}pyridin-2-yl)propan-2-ol], the negative logarithm of the IC50 (pIC50) on human MER is 6.00 to 7.00; against human TYRO3 it was above 7.00.

As for `CC(C)(O)c1ccc(-c2n[nH]c3ncc(-c4ccc5c(c4)CCN(C4CCCC4)CC5)cc23)cn1` [Example 10, 2-{5-[5-(3-Cyclopentyl-2,3,4,5-tetrahydro-1H-3-benzazepin-7-yl)-1H-pyrazolo[3,4-b]pyridin-3-yl]pyridin-2-yl}propan-2-ol], the negative logarithm of the IC50 (pIC50) against human MER and against human TYRO3 was 6.00 to 7.00 throughout.

As to `CC(C)(O)c1ccc(-c2n[nH]c3ncc(-c4ccc5c(c4)CCC(N4CCCC4)CC5)cc23)cc1Cl` (stereo not shown) [Example 11, 2-(2-Chloro-4-{5-[7-(pyrrolidin-1-yl)-6,7,8,9-tetrahydro-5H-benzo[7]annulen-2-yl]-1H-pyrazolo[3,4-b]pyridin-3-yl}phenyl)propan-2-ol], the pIC50 on human MER and against human TYRO3 was 6.00 to 7.00 in each case.

Take `CC(C)(O)c1ccc(-c2n[nH]c3ncc(-c4ccc5c(c4)CCN(C4CCCC4)CC5)cc23)cc1Cl` [Example 12, 2-{2-Chloro-4-[5-(3-cyclopentyl-2,3,4,5-tetrahydro-1H-3-benzazepin-7-yl)-1H-pyrazolo[3,4-b]pyridin-3-yl]phenyl}propan-2-ol]: the pIC50 on human MER and on human TYRO3 was below 6.00 each time.

As for `CC(C)(O)c1ccc(-c2n[nH]c3ncc(-c4ccc5c(c4)CCN(C4CCCC4)CC5)cc23)cc1C(F)(F)F` [Example 16, 2-{4-[5-(3-Cyclopentyl-2,3,4,5-tetrahydro-1H-3-benzazepin-7-yl)-1H-pyrazolo[3,4-b]pyridin-3-yl]-2-(trifluoromethyl)phenyl}propan-2-ol], the pIC50 at human MER and on human TYRO3 was 6.00 to 7.00 each time.

In the case of `CC(C)(O)c1ccc(-c2n[nH]c3ncc(-c4ccc5c(c4)CCN(C4CCCC4)CC5)cc23)c(F)c1` [Example 17, 2-{4-[5-(3-Cyclopentyl-2,3,4,5-tetrahydro-1H-3-benzazepin-7-yl)-1H-pyrazolo[3,4-b]pyridin-3-yl]-3-fluorophenyl}propan-2-ol], the values for the pIC50 against human MER and at human TYRO3 were below 6.00 and 6.00 to 7.00, respectively.

As for `C[C@@H]1CCCN1C1CCc2ccc(-c3cnc4[nH]nc(-c5ccc(C(C)(C)O)c(C(F)(F)F)c5)c4c3)cc2CC1` (stereo partly drawn) [Example 20, 2-[4-(5-{7-[(2R)-2-Methylpyrrolidin-1-yl]-6,7,8,9-tetrahydro-5H-benzo[7]annulen-2-yl}-1H-pyrazolo[3,4-b]pyridin-3-yl)-2-(trifluoromethyl)phenyl]propan-2-ol], the results for the pIC50 on human MER and against human TYRO3 were 6.00 to 7.00 and above 7.00, respectively.

Regarding `CC(C)(O)c1ccc(-c2n[nH]c3ncc(-c4ccc5c(c4)CCC(N4CCC[C@@H]4CO)CC5)cc23)cc1Cl` (stereo partly drawn) [Example 21, 2-[2-Chloro-4-(5-{7-[(2R)-2-(hydroxymethyl)pyrrolidin-1-yl]-6,7,8,9-tetrahydro-5H-benzo[7]annulen-2-yl}-1H-pyrazolo[3,4-b]pyridin-3-yl)phenyl]propan-2-ol], the pIC50 on human MER and on human TYRO3 was 6.00 to 7.00 in each case.

Turning to `C[C@@H]1CCCN1C1(C)CCc2ccc(-c3cnc4[nH]nc(-c5ccc(C(C)(C)O)nc5)c4c3)cc2CC1` (stereo partly drawn) [Example 22, 2-[5-(5-{7-Methyl-7-[(2R)-2-methylpyrrolidin-1-yl]-6,7,8,9-tetrahydro-5H-benzo[7]annulen-2-yl}-1H-pyrazolo[3,4-b]pyridin-3-yl)pyridin-2-yl]propan-2-ol], the pIC50 against human MER was 6.00 to 7.00; against human TYRO3, above 7.00.
